Laboratory results from patent US20030109537A1, “Methods and materials for treating bone conditions” (priority 2001, published 2003).

Experiments:
[1] = system: genes for cytokines and their receptors; experiment: cDNA microarray analysis of PTH-regulated genes in proximal tibial metaphysis; format: in vivo, rat; conditions: for genes regulated (of 8500 rat genes, Affymetrix): p<0.05
Experimental: Induction of parathyroid bone disease. Three month-old female Sprague-Dawley rats (Harlan Sprague-Dawley, Inc., Indianapolis, Ind.) were randomly divided into 3 groups, with 5 rats per group. In group 1 (pulsatile or intermittent PTH), each rat received 80 μg/kg/day human PTH (1-34) (hPTH) in vehicle (150 mM NaCl, 1 mM HCl and 2% heat-inactivated rat serum) by subcutaneous (s.c.) injection once daily for 7 days. In group 2 (vehicle), an osmotic pump (Alza Corp., Mountainview, Calif.) that delivered vehicle alone at a rate of 1 μl/hr for 7 days was implanted in each rat. In group 3 (continuous PTH), an osmotic pump that delivered 40 μg/kg/day hPTH at a rate of 1 μl/hr for 7 days was implanted in each rat. On day 8, all rats were anesthetized with ketamine (50 mg/kg): xylazine HCl (5 mg/kg) and sacrificed by decapitation. Both tibiae were removed from each rat. Right tibiae were fixed by immersion in 70% ethanol then processed for bone histology to verify the appearance of peritrabecular fibrosis. Left tibiae were frozen in liquid N2 and stored at −80° C. until processed for RNA isolation.
Isolation of RNA. Frozen proximal tibial metaphyses were individually homogenized in guanidine isothiocyanate using a Spex freezer mill (Industries, Inc., Edison, N.J.). Total RNA was extracted from the homogenate using a modified organic solvent method. See Chomczynski et al., Anal. Biochem., 162:156-159 (1987). Isolated RNA yields were determined spectrophotometrically at 260 nm using standard methods.
cDNA microarray analysis. cDNA probes were generated by reverse transcription (Superscript II, Life Technologies, Rockville, Md.) using 1 μg total RNA isolated from the proximal tibial metaphysis of rats in groups 1, 2, and 3. First-strand cDNA probes were primed by the addition of oligo dT and subsequently labeled with [α-^33P]dCTP (ICN Radiochemicals Costa Mesa, Calif.). The labeled probes then were purified by passage through a Sephadex G-50 DNA Grade Column (Amersham Pharmacia Biotech AB, Uppsala, Sweden). The purified probes were hybridized to a rat genefilter microarray containing 5531 genes (GF 300; Research Genetics, Huntsville, Ala.). according to the manufacturer's recommended protocol. A micro-array system from Affymetrix, which contains 8500 genes, also was used. After hybridization, the array was washed and wrapped with plastic wrap before placing in a phosphor imaging cassette containing a Cyclone Storage Phosphor Screen (Packard, Downers Groves, Ill.). After 24 hours, the screen was imaged and the resulting images analyzed using Pathways 2.01 software to compare the signal intensities of spots.
Candidate genes associated with peritrabecular fibrosis were identified with cDNA microarrays containing 5531 or 8500 genes as described in Example 1. Approximately 14% of the total genes measured were differentially expressed by at least 2.5-fold between pulsatile and continuous PTH-treated groups. […] Of the regulated genes, 158 were unique to intermittent administration of PTH and 759 to continuous administration of PTH. An additional 158 genes were common to both treatments.
The list of candidate genes was examined to determine if any of the genes encoded growth factors. More specifically, it was determined if the differentially expressed genes were growth factors produced on or near bone surfaces, were chemotactic to fibroblasts, were able to stimulate fibroblast proliferation, or could induce bone resorption. One of the candidate genes, PDGF, a known mitogenic and chemotactic factor for fibroblasts, met all these criteria.

Serum chemistry and PTH = format: in vivo, rat; conditions: rats
Experimental: Treatment protocol. Three month-old female Sprague-Dawley rats were divided into 4 groups. In group 1 (n=9), osmotic pumps that delivered vehicle alone at a rate of 1 μl/hr for 7 days were implanted in each rat. […] In groups 3 and 4 (n=8 and 10, respectively), osmotic pumps were implanted in each rat that delivered 40 μg/kg/day hPTH at a rate of 1 μl/hr for 7 days. […] Tetracycline (20 mg/kg, Sigma Chemical Co., St. Louis, Mo.) and calcein (20 mg/kg, Sigma) fluorochrome labels were injected at the base of the tail on day 0 (tetracycline) and day 6 (calcein). On day 8, all rats were anesthetized and blood was collected by cardiac puncture. The blood samples were used to determine serum chemistry and PTH levels. Following blood collection, the rats were sacrificed by cervical dislocation, and tibiae were surgically removed and fixed in 70% ethanol for bone histomorphometry.
Serum chemistry and PTH. Total serum calcium, phosphate, and magnesium levels were measured in rat blood samples by Central Clinical Laboratory Research at the Mayo Clinic using automated procedures. Serum PTH was measured using an immunoradiometric assay for rat PTH (Immunotopics International, LLC, San Clementa, Calif.) that has approximately 100% cross-reactivity to human PTH.
Serum and bone samples were collected after 7 days and analyzed.

[2] = continuous PTH, rat proximal tibial metaphysis, gene microarray
[3] = continuous administration of PTH
[4] = intermittent administration of PTH
[5] = day 8, trapidil 40 mg/kg/day s.c. 7 days, hPTH 40 μg/kg/day continuous by osmotic pump 7 days, mean ± SEM

total genes differentially expressed by at least […] between pulsatile and continuous PTH-treated groups ([1]; cDNA microarrays): Approximately 14%
BMP-1 gene expression, Fold Change [1, 2]: 1.3 fold
BMP-3 gene expression, Fold Change [1, 2]: 19 fold
BMP-6 gene expression, Fold Change [1, 2]: 1.6 fold
COX2 gene expression, Fold Change [1, 2]: 1.8 fold
FGF gene expression, Fold Change [1, 2]: 5.1 fold
FGF receptor-1 gene expression, Fold Change [1, 2]: 2.7 fold
IL-6 receptor gene expression, Fold Change [1, 2]: −1.2 fold
IL-12p40 gene expression, Fold Change [1, 2]: 1.3 fold
PGE2 receptor EP3 gene expression, Fold Change [1, 2]: 1.7 fold
PTH receptor gene expression, Fold Change [1, 2]: 3.8 fold
TGF-β1 gene expression, Fold Change [1, 2]: 1.5 fold
TGF-β3 gene expression, Fold Change [1, 2]: 1.9 fold
PDGF-A gene expression, Fold Change ([1]; continuous PTH, rat proximal tibial metaphysis, gene microarray, n = 5): 85 fold
number of regulated genes unique to the regimen [1, 3]: 759
genes regulated (of 8500 rat genes, Affymetrix) [1, 3]: 10.4%
number of regulated genes unique to the regimen [1, 4]: 158
genes regulated (of 8500 rat genes, Affymetrix) [1, 4]: 3.6%
number of regulated genes common to both treatments ([1]; intermittent and continuous PTH): 158
Substance: human PTH (1-34)
serum chemistry effect of continuous PTH (Serum chemistry and PTH; continuous PTH 40 μg/kg/day 7 days): induced hypercalcemia and hyperparathyroidism
Serum Calcium (Serum chemistry and PTH; [5]): 11.65 ± 0.28^ab mg/dl
Serum Magnesium (Serum chemistry and PTH; [5]): 2.49 ± 0.04 mg/dL
Serum PTH (Serum chemistry and PTH; [5]): 98.27 ± 11.12^ab pg/ml
Serum Phosphorus (Serum chemistry and PTH; [5]): 7.95 ± 0.48 mg/dL
